Values quoted from earlier work, collected in patent US12350300B2, “Use of dopamine producing products to increase vaccine efficacy” (Iowa State University Research Foundation, Inc., priority 2021, dated 2025).

Assays:
[1] = tested on: mouse colitis; conditions: Herak-Perkovic 2001
[2] = tested on: longitudinal muscle; conditions: read-out: EC50, relaxation
[3] = tested on: circular muscle; conditions: read-out: EC50, contractions

EC50 [2]: 29 µM
EC50 [3]: 6.3 µM
Compound: NCCc1ccc(O)c(O)c1 [dopamine]
effect against the development of inflammation [1]: protective effect
